# Values of other authors, collected in patent publication US20090226517A1, “PHARMACEUTICAL FORMULATIONS COMPRISING DULOXETINE” (priority 2008, published 2009).
# Settings: background statement; limited aqueous solubility
structure (smiles),measurement,value
CNCC[C@H](Oc1cccc2ccccc12)c1cccs1 [Duloxetine],BCS class,BCS class II
